Where two headings read alike, the source gives them in different places.

The source of these data is article PMC8160210, “Single tryptophan Y160W mutant of homooligomeric E. coli purine nucleoside phosphorylase implies that dimers forming the hexamer are functionally not equivalent” (Scientific Reports, 2021).

One assay addresses T1, Y160W mutant/Pi complex (Escherichia coli, UniProt P0ABP8, Y161W).
T1 construct: made in house; host or cells: E. coli DH5α-T1
Briefly: Thermophoretic (MST) titrations with formycin A. Further details: species or system E. coli. As to the method:
Measurements were performed with Monolith NT115 (NanoTemper). Enzyme was labelled with NT647 fluorescent dye (NanoTemper) according to the protocol provided by the manufacturer. Labelled proteins show fluorescence excitation and emission maxima of approximately 650 and 670 nm, respectively. The series of titrations were performed at a constant protein concentration. Both proteins (WT and mutant), and ligands were dissolved in 50 mM Tris/HCl pH 7.6 buffer, measurements were performed at 25 °C. […] In the pre-experiments, it was carefully checked for both proteins, WT and Y160W mutant whether any sign of aggregation or inactivation occurs, and if mutant behaviour is similar to that of the WT enzyme. An example of the raw thermophoretic curves obtained with the relative heating laser power at 60% and 80% are shown in the Supplementary Information (Figure S7).
Experiments of the nucleoside analogue binding were performed in the presence of saturating concentration of phosphate, i.e. 50 mM. For both, WT PNP and Y160W mutant seven repetitions of each curve were measured, for a single power of the heating laser. The power of the heating laser at which the strongest change of the thermophoretic signal upon ligand binding occurs was selected, namely 80% for both enzyme variants. The raw MST traces, for two highest tested laser powers, 60% and 80%, are presented in the Supplementary information (Figure S7) Protein concentration in the capillary was constant and equal to 0.215 μM and 0.0751 μM for the WT protein and the Y160W mutant, respectively. Series of titrations were analysed globally using the DynaFit4 program[40] (see below).
Three models were taken into account in analysis of binding curves: model with one (first equation below), two (first two equations) and three binding sites. P+L⇔PLwithKd1PL+L⇔PLLwithKd2PLL+L⇔PLLLwithKd3
The model with one binding site is based on the assumption that all monomers are equivalent, and there is no cooperation between them. In the model with two binding sites the basic functional unit of the protein is a dimer, possible non-equivalence of binding sites or cooperativity between active sites in the dimer are taken into account (in the case of no cooperativity dissociation constants should be related statistically: Kd2 = 4Kd1), the dimers within hexamer are equivalent. The model with three binding sites is based on the crystallographic structures of binary and ternary complexes of PNP with ligands, where two of the dimers are in the “open-closed” conformation, but the third dimer is symmetrical, in the “open-open” conformation. Thus, active sites in the open conformation belonging to “open-closed” and “open-open” dimer may not be equivalent. […]
Titration series were analysed globally, always starting from the simplest, one-binding-site model. […] For all tested models the Akaike information criterion[23] was also calculated. […] Analysed models were fitted to the raw data, whereas graphs presented in this study were prepared from the normalised data and the fitted curves. […] Responses are defined as changes in a measured physical quantity related to the formation of subsequent protein–ligand complexes: intrinsic protein fluorescence intensity, fluorescence intensity of the dye, heat and ellipticity for fluorimetric, thermophoretic, calorimetric and CD titrations, respectively. […]

The target of the next assay is Y160W PNP mutant (Escherichia coli, UniProt P0ABP8, Y161W). Briefly: Fluorescence titrations with phosphate. The note with it: three-binding-site model, 25 °C. Further details: made in house; host or cells: E. coli DH5α-T1; species or system E. coli. As to the method:
All experiments were carried out on the Perkin-Elmer LS55 spectrofluorimeter. Fluorescence spectra were registered using in each case (protein or protein–ligand complex) several excitation wavelengths. Differential spectra were calculated by subtracting spectrum of a protein from the spectrum of the appropriate complex. The negative differential fluorescence intensity means that a decrease of fluorescence upon complex formation is observed. Titrations of the enzyme with phosphate were registered using several excitation and observation wavelengths combinations. When selecting specific wavelengths for such a combination, two criteria were used: (1) the overall change in the fluorescence signal and (2) the complexity of the shape of the titration as the analysis of the multi-phasic curves is more explicit than a uni-phasic curve analysis.
Path length for the excitation was 2 mm and for the emission was 5 mm (half of the cuvette dimensions). A continuous stirring was used during titrations. All measurements were performed at 25 °C. […]
Fluorescence intensity of the WT protein is stable over time, but in the case of the Y160W mutant a slight quenching of fluorescence is observed during titration, which typically lasted about 30 min as the time between each point in the titration was 1 min. Furthermore, adding phosphate during titration stabilises the intrinsic fluorescence of the protein. […] Thus corrected binding curves, F^cor([Pi]), are given by the following equation, in which Fn([Pi]) is the fluorescence intensity measured for the phosphate concentration [Pi], and n is the number of a given titration point in the particular titration:4 FncorPi=FnPi+∑m=1naPim
To check its influence on the intrinsic protein fluorescence, titrations with NaCl were performed, giving dependence F(I). […] Titration curves of the WT protein with phosphate were therefore measured up to 100 mM ionic strength of solution, which is enough to observe a plateau. […] Both F^obs([Pi]) and F(I) were corrected for the time dependent fluorescence quenching, according to Eq. (4), prior to the F^bind([Pi]) calculation. […]

Sequence of Y160W PNP mutant (P0ABP8 2-239 Y161W): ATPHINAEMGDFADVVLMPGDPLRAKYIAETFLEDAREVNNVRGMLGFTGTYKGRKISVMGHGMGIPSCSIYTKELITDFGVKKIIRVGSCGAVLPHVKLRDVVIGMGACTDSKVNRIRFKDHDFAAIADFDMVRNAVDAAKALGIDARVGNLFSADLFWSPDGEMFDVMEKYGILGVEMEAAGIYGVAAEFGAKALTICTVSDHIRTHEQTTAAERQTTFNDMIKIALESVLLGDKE
T1 sequence (P0ABP8 2-239 Y161W, one chain of several): as the sequence (P0ABP8 2-239 Y161W) above

As for `Nc1ncnc2c([C@@H]3O[C@H](CO)[C@@H](O)[C@H]3O)[nH]nc12` [FA, Formycin A], the Kd on Y160W mutant/Pi complex (Kd1 ± SD, three-binding-site model, 50 mM phosphate, pH 7.6, 25 °C) was 0.137 µM; at Y160W mutant/Pi complex (Kd3 ± SD, three-binding-site model, 50 mM phosphate, pH 7.6, 25 °C), 1750 µM; on Y160W mutant/Pi complex (read-out: Kd2 ± SD, three-binding-site model, 50 mM phosphate, pH 7.6, 25 °C), 110 µM.
For `O=P(O)(O)O` [Pi, Orthophosphate], the Kd came to 7 µM at Y160W PNP mutant (50 mM Tris/HCl pH 7.6, read-out: Kd1 ± SD); 200 µM at Y160W PNP mutant (50 mM Tris/HCl pH 7.6, read-out: Kd2 ± SD); 3200 µM on Y160W PNP mutant (50 mM Tris/HCl pH 7.6, read-out: Kd3 ± SD).
